Assay results published in ChEMBL document CHEMBL1255493, “In vitro activity of telavancin against a contemporary worldwide collection of Staphylococcus aureus isolates” (2010).
Converted amounts (≈) assume the structure as drawn. The source made the active and inactive calls. The rule behind the calls is not given here.

Key:
Type in all cases: functional
[1] = system: Staphylococcus aureus; assay: Antibacterial activity against methicillin-resistant Staphylococcus aureus clinical isolates by CLSi method
[2] = system: Staphylococcus aureus; assay: Antibacterial activity against methicillin-resistant Staphylococcus aureus clinical isolates assessed as susceptible isolates by CLSI method
[3] = system: Staphylococcus aureus; assay: Antibacterial activity against methicillin-resistant Staphylococcus aureus clinical isolates assessed as resistant isolates by CLSI method
[4] = system: Staphylococcus aureus; assay: Antibacterial activity against methicillin-resistant Staphylococcus aureus clinical isolates assessed as susceptible isolates by EUCAST method
[5] = system: Staphylococcus aureus; assay: Antibacterial activity against methicillin-resistant Staphylococcus aureus clinical isolates assessed as resistant isolates by EUCAST method
[6] = system: Staphylococcus aureus; assay: Antibacterial activity against methicillin-susceptible Staphylococcus aureus clinical isolates by CLSi method
[7] = system: Staphylococcus aureus; assay: Antibacterial activity against methicillin-susceptible Staphylococcus aureus clinical isolates assessed as susceptible isolates by CLSI method
[8] = system: Staphylococcus aureus; assay: Antibacterial activity against methicillin-susceptible Staphylococcus aureus clinical isolates assessed as resistant isolates by CLSI method
[9] = system: Staphylococcus aureus; assay: Antibacterial activity against methicillin-susceptible Staphylococcus aureus clinical isolates assessed as susceptible isolates by EUCAST method
[10] = system: Staphylococcus aureus; assay: Antibacterial activity against methicillin-susceptible Staphylococcus aureus clinical isolates assessed as resistant isolates by EUCAST method
[11] = system: Staphylococcus aureus; assay: Antibacterial activity against methicillin-resistant Staphylococcus aureus clinical isolates assessed as susceptibility breakpoint

## CCCCCCCCCC(=O)N[C@@H](Cc1c[nH]c2ccccc12)C(=O)N[C@H](CC(N)=O)C(=O)N[C@@H](CC(=O)O)C(=O)N[C@@H]1C(=O)NCC(=O)N[C@@H](CCCN)C(=O)N[C@@H](CC(=O)O)C(=O)N[C@H](C)C(=O)N[C@@H](CC(=O)O)C(=O)NCC(=O)N[C@H](CO)C(=O)N[C@@H]([C@H](C)CC(=O)O)C(=O)N[C@@H](CC(=O)c2ccccc2N)C(=O)O[C@@H]1C
[1]
  MIC50: 0.25 µg/mL (≈ 0.154 µM)
  MIC90: 0.5 µg/mL (≈ 0.309 µM)
[2]
  Activity: 99.9%
[3]
  Activity: inactive
[4]
  Activity: 99.9%
[5]
  Activity: 0.1%
[6]
  MIC50: 0.25 µg/mL (≈ 0.154 µM)
  MIC90: 0.5 µg/mL (≈ 0.309 µM)
[7]
  Activity: 100%
[8]
  Activity: inactive
[9]
  Activity: 100%
[10]
  Activity: 0%

## CCC[C@@H]1C[C@@H](C(=O)N[C@@H]([C@H]2O[C@H](SC)[C@H](O)[C@@H](O)[C@H]2O)[C@H](C)Cl)N(C)C1 [CLINDAMYCIN]
[1]
  MIC90: > 2 µg/mL
[2]
  Activity: 54.7%
[3]
  Activity: 45%
[4]
  Activity: 54.3%
[5]
  Activity: 45.3%
[6]
  MIC50: ≤ 0.25 µg/mL
  MIC90: ≤ 0.25 µg/mL
[7]
  Activity: 95%
[8]
  Activity: 4.9%
[9]
  Activity: 94.6%
[10]
  Activity: 5%

## CC[C@H]1OC(=O)[C@H](C)[C@@H](O[C@H]2C[C@@](C)(OC)[C@@H](O)[C@H](C)O2)[C@H](C)[C@@H](O[C@@H]2O[C@H](C)C[C@H](N(C)C)[C@H]2O)[C@](C)(O)C[C@@H](C)C(=O)[C@H](C)[C@@H](O)[C@]1(C)O [ERYTHROMYCIN]
[1]
  MIC50: > 4 µg/mL
[2]
  Activity: 13.9%
[3]
  Activity: 85.6%
[4]
  Activity: 14.2%
[5]
  Activity: 85.6%
[6]
  MIC50: ≤ 0.25 µg/mL
  MIC90: > 4 µg/mL
[7]
  Activity: 74.3%
[8]
  Activity: 25.2%
[9]
  Activity: 74.5%
[10]
  Activity: 25.2%

## C[C@H]1COc2c(N3CCN(C)CC3)c(F)cc3c(=O)c(C(=O)O)cn1c23.C[C@H]1COc2c(N3CCN(C)CC3)c(F)cc3c(=O)c(C(=O)O)cn1c23.O [LEVOFLOXACIN]
[1]
  MIC50: > 4 µg/mL
  MIC90: > 4 µg/mL
[2]
  Activity: 21.6%
[3]
  Activity: 77.9%
[4]
  Activity: 21.6%
[5]
  Activity: 77.9%
[6]
  MIC50: ≤ 0.5 µg/mL
  MIC90: ≤ 0.5 µg/mL
[7]
  Activity: 92.9%
[8]
  Activity: 6.8%
[9]
  Activity: 92.9%
[10]
  Activity: 6.8%

## CC(=O)NC[C@H]1CN(c2ccc(N3CCOCC3)c(F)c2)C(=O)O1 [LINEZOLID]
[1]
  MIC50: 1 µg/mL (≈ 2.96 µM)
  MIC90: 2 µg/mL (≈ 5.93 µM)
[3]
  Activity: inactive
[5]
  Activity: <0.1%
[6]
  MIC50: 2 µg/mL (≈ 5.93 µM)
  MIC90: 2 µg/mL (≈ 5.93 µM)
[7]
  Activity: 100%
[8]
  Activity: inactive
[9]
  Activity: 100%
[10]
  Activity: 0%

## CCCCCCCCCCNCCN[C@@]1(C)C[C@H](O[C@H]2[C@H](Oc3c4cc5cc3Oc3ccc(cc3Cl)[C@@H](O)[C@@H](NC(=O)[C@@H](CC(C)C)NC)C(=O)N[C@@H](CC(N)=O)C(=O)N[C@H]5C(=O)N[C@H]3C(=O)N[C@H](C(=O)N[C@H](C(=O)O)c5cc(O)c(CNCP(=O)(O)O)c(O)c5-c5cc3ccc5O)[C@H](O)c3ccc(c(Cl)c3)O4)O[C@H](CO)[C@@H](O)[C@@H]2O)O[C@@H](C)[C@H]1O [TELAVANCIN]
[1]
  MIC50: 0.12 µg/mL (≈ 0.0684 µM)
  MIC90: 0.25 µg/mL (≈ 0.142 µM)
[3]
  Activity: inactive
[5]
  Activity: inactive
[11]
  Activity: <=1 ug ml-1
[6]
  MIC50: 0.12 µg/mL (≈ 0.0684 µM)
  MIC90: 0.25 µg/mL (≈ 0.142 µM)
[7]
  Activity: 100%
[8]
  Activity: inactive
[9]
  Activity: 100%
[10]
  Activity: inactive

## CN(C)[C@@H]1C(O)=C(C(N)=O)C(=O)[C@@]2(O)C(O)=C3C(=O)c4c(O)cccc4[C@@](C)(O)[C@H]3C[C@@H]12 [TETRACYCLINE]
[2]
  Activity: 80.7%
[3]
  Activity: 19.1%
[4]
  Activity: 80.1%
[5]
  Activity: 19.9%
[6]
  MIC50: ≤ 1 µg/mL
  MIC90: ≤ 1 µg/mL
[7]
  Activity: 94.6%
[8]
  Activity: 5%
[9]
  Activity: 94.2%
[10]
  Activity: 5.8%

## CN[C@H](CC(C)C)C(=O)N[C@H]1C(=O)N[C@@H](CC(N)=O)C(=O)N[C@H]2C(=O)N[C@H]3C(=O)N[C@H](C(=O)N[C@H](C(=O)O)c4cc(O)cc(O)c4-c4cc3ccc4O)[C@H](O)c3ccc(c(Cl)c3)Oc3cc2cc(c3O[C@@H]2O[C@H](CO)[C@@H](O)[C@H](O)[C@H]2O[C@H]2C[C@](C)(N)[C@H](O)[C@H](C)O2)Oc2ccc(cc2Cl)[C@H]1O [VANCOMYCIN]
[1]
  MIC50: 1 µg/mL (≈ 0.69 µM)
  MIC90: 1 µg/mL (≈ 0.69 µM)
[2]
  Activity: 99.9%
[3]
  Activity: 0%
[4]
  Activity: 99.9%
[5]
  Activity: 0.1%
[6]
  MIC50: 1 µg/mL (≈ 0.69 µM)
  MIC90: 1 µg/mL (≈ 0.69 µM)
[7]
  Activity: 100%
[8]
  Activity: 0%
[9]
  Activity: 100%
[10]
  Activity: 0%

## GENTAMICIN
[1]
  MIC50: < 1 µg/mL
  MIC90: > 8 µg/mL
[2]
  Activity: 77.9%
[3]
  Activity: 21.1%
[4]
  Activity: 77.1%
[5]
  Activity: 22.9%
[6]
  MIC50: < 1 µg/mL
  MIC90: < 1 µg/mL
[7]
  Activity: 96.6%
[8]
  Activity: 3.1%
[9]
  Activity: 96.4%
[10]
  Activity: 3.6%
